The target in assay [1] is human Adenosine A2b receptor (Homo sapiens (Human), UniProt P29275). Put plainly: Adenosine receptor TR-FRET binding assay (A2b). The conditions noted are these: inhibition of binding of 30 nM CA200645; CHO cell membranes; Ki from IC50 by Cheng and Prusoff. The protocol: (§1) All FRET binding experiments were conducted at room temperature in white 384-well plates, in assay binding buffer containing 1× LabMed (Cisbio, France), 100 μg/mL saponin, 1% DMSO and 0.02% pluronic acid. Binding of the fluorescently labelled Adenosine receptor antagonist XAC (CA200645, FRET acceptor) to terbium-labelled A1, A2a, A2b and A3 adenosine receptors (FRET donors) was detected by time-resolved FRET due to the close proximity of the donor and acceptor in a binding event. To investigate the ability of unlabelled test compounds to bind to Adenosine A1, A2a, A2b and A3 receptors, dose response curves were constructed that determined the ability of a range of concentrations to inhibit the binding of 30 nM CA200645 to the A2b receptor and 100 nM CA200645 to the A1, A2a, and A3 receptor.
human Adenosine A2b receptor, sequence (P29275 whole entry): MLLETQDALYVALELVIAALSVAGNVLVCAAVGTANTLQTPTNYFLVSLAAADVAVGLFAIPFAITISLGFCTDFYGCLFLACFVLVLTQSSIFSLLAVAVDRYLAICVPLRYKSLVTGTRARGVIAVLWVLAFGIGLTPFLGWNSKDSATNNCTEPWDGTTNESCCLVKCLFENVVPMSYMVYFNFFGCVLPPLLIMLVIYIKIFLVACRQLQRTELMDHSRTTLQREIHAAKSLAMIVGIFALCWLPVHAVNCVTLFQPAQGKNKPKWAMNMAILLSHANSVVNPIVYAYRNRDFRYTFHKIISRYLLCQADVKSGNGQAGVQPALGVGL
(§2) Serial dilution (1:3 dilutions) of test compounds in neat DMSO and transfer of a 400 nL sample of test compound into the assay plate was carried out using the Mosquito (TTP Labtech, UK). The compound samples were incubated for 2 hours at room temperature with a fixed concentration of CA200645 defined for each receptor (see above) and CHO cell membranes containing the human Adenosine A1 (0.5 μg/well), A2a (0.3 μg/well), A2b (1 μg/well) or A3 (1 μg/well) receptor in 40 μL of assay buffer. Total and non-specific binding of CA200645 was determined in the absence and presence of 10 μM XAC, respectively. Following 2 hours incubation, the level of CA200645 binding was detected on a Pherastar FSX (BMG Labtech, Germany) using standard TR-FRET settings. The terbium donor was excited with three laser flashes at a wavelength of 337 nm, and donor and acceptor emission was detected at 620 nm and 665 nm wavelengths, respectively. FRET ratios were obtained by multiplying the acceptor/donor ratio value by 10,000. Specific binding was determined by subtracting the non-specific binding FRET ratio from the total binding FRET ratio. Compound IC50 curves were analysed using GraphPad Prism 7.0 (GraphPad, USA) and Ki affinity values were determined from the obtained IC50 values using the method of Cheng and Prusoff.
Background: Time-resolved FRET reads energy transfer from a long-lived donor to a nearby acceptor.

Assay [2] concerns the target human Adenosine A2a receptor (Homo sapiens (Human), UniProt P29274). Kind of assay: Adenosine receptor TR-FRET binding assay (A2a). On the procedure: as §1, §2
The target in assay [3] is human Adenosine A1 receptor (Homo sapiens (Human), UniProt P30542). Kind of assay: Adenosine receptor TR-FRET binding assay (A1). On the procedure:
as §1, §2

Where [4] appears, read: inhibition of binding of 100 nM CA200645, CHO cell membranes, Ki from IC50 by Cheng and Prusoff.

Read-outs that look alike come from different tables or passages of the source.

human Adenosine A1 receptor, sequence (P30542 whole entry): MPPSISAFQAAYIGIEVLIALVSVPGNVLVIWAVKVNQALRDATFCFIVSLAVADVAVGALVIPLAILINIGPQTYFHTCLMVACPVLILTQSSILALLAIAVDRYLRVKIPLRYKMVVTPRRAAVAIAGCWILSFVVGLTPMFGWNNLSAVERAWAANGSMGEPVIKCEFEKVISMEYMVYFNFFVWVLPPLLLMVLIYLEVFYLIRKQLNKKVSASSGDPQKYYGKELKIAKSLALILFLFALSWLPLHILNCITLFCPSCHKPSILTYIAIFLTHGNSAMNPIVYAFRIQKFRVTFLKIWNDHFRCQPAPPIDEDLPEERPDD
human Adenosine A2a receptor, sequence (P29274 whole entry): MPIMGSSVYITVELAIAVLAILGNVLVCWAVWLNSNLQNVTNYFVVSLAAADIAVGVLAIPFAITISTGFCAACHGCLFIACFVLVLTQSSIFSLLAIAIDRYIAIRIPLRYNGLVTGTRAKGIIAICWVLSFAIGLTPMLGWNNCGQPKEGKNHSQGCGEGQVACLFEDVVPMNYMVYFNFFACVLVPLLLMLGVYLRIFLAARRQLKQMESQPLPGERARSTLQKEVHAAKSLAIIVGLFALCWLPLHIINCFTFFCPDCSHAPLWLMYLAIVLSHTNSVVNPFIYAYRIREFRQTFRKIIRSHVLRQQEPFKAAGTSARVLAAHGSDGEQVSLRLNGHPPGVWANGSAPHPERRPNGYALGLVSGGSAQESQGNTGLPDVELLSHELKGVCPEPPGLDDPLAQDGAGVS

One may read the Ki as the equilibrium dissociation constant of an inhibitor or competing ligand from its target. On to `Cc1ncnc2ccc(-c3sc(NC(=O)N4CCOC(C(C)(C)O)C4)nc3-c3cccc(C#N)c3)cc12` (racemic) [Example 7.7, N-[4-(3-Cyanophenyl)-5-(4-methylquinazolin-6-yl)thiazol-2-yl]-2-(1-hydroxy-1-methyl-ethyl)morpholine-4-carboxamide], for which the Ki in assay [1] is 3.6 nM; in assay [2] (setting [4]), 0.26 nM; in assay [3] (setting [4]), 9 nM.

Take `Cc1ncnc2ccc(-c3sc(NC(=O)N4CCO[C@H](C(C)(C)O)C4)nc3-c3cccc(C#N)c3)cc12` (single isomer, unassigned) [Example 7.7a, (2S)—N-[4-(3-Cyanophenyl)-5-(4-methylquinazolin-6-yl)thiazol-2-yl]-2-(1-hydroxy-1-methyl-ethyl)morpholine-4-carboxamide or (2R)—N-[4-(3-cyanophenyl)-5-(4-methylquinazolin-6-yl)thiazol-2-yl]-2-(1-hydroxy-1-methyl-ethyl)morpholine-4-carboxamide]: the Ki in assay [1] came out at 1.1 nM; in assay [2] (setting [4]), 0.1 nM; in assay [3] (setting [4]), 4 nM.

As for `Cc1ncnc2ccc(-c3sc(NC(=O)N4CCO[C@H](C(C)(C)O)C4)nc3-c3cccc(C#N)c3)cc12` (single isomer, unassigned) [Example 7.7b, (2S)—N-[4-(3-Cyanophenyl)-5-(4-methylquinazolin-6-yl)thiazol-2-yl]-2-(1-hydroxy-1-methyl-ethyl)morpholine-4-carboxamide or (2R)—N-[4-(3-cyanophenyl)-5-(4-methylquinazolin-6-yl)thiazol-2-yl]-2-(1-hydroxy-1-methyl-ethyl)morpholine-4-carboxamide], the results for the Ki in assay [1], in assay [2] (setting [4]) and in assay [3] (setting [4]) were 1.5 nM, 0.2 nM and 9 nM, respectively.

As to `Cc1ncnc2ccc(-c3sc(NC(=O)N4CC[C@](C)(C#N)C4)nc3-c3cccc(C#N)c3)cc12` [Example 1, (3S)-3-Cyano-N-[4-(3-cyanophenyl)-5-(4-methylquinazolin-6-yl)thiazol-2-yl]-3-methyl-pyrrolidine-1-carboxamide], the Ki in assay [1] worked out at 0.9 nM; in assay [2] (setting [4]), 0.12 nM; in assay [3] (setting [4]) it was 2 nM.

Regarding `Cc1ncnc2ccc(-c3sc(NC(=O)N4CC5(COCCN5)C4)nc3-c3cccc(C#N)c3)cc12` [Example 4.2, N-[4-(3-Cyanophenyl)-5-(4-methylquinazolin-6-yl)thiazol-2-yl]-8-oxa-2,5-diazaspiro[3.5]nonane-2-carboxamide], the Ki in assay [1] worked out at 3 nM; in assay [2] it was 0.35 nM; in assay [3] it was 34 nM.

For the compound `Cc1ncnc2ccc(-c3sc(NC(=O)N4CCC5(COCCN5)C4)nc3-c3cccc(C#N)c3)cc12` (stereo not drawn) [Example 4.3, N-[4-(3-Cyanophenyl)-5-(4-methylquinazolin-6-yl)thiazol-2-yl]-9-oxa-2,6-diazaspiro[4.5]decane-2-carboxamide], the Ki in assay [1] was 2.4 nM; in assay [2] it was 0.3 nM; in assay [3], 30 nM.

For `Cc1ncnc2ccc(-c3sc(NC(=O)N4CCN(C(C)(C)C#N)CC4)nc3-c3cccc(C#N)c3)cc12` [Example 7.2, 4-(1-Cyano-1-methyl-ethyl)-N-[4-(3-cyanophenyl)-5-(4-methylquinazolin-6-yl)thiazol-2-yl]piperazine-1-carboxamide], the Ki in assay [1] is 1.5 nM; in assay [2] (setting [4]), 0.2 nM; in assay [3] (setting [4]) it was 9 nM.

Take `Cc1ncnc2ccc(-c3sc(NC(=O)N4CC5CN(C)CC54)nc3-c3cccc(C#N)c3)cc12` (stereo not drawn) [Example 7.3, N-[4-(3-Cyanophenyl)-5-(4-methylquinazolin-6-yl)thiazol-2-yl]-3-methyl-3,6-diazabicyclo[3.2.0]heptane-6-carboxamide]: the Ki in assay [1] worked out at 10.5 nM; in assay [2] (setting [4]) it was 2.42 nM; in assay [3] (setting [4]), 19 nM.

With `Cc1ncnc2ccc(-c3sc(NC(=O)N4CCN(C(C)C#N)CC4)nc3-c3cccc(C#N)c3)cc12` (stereo not drawn) [Example 7.5, 4-(1-Cyanoethyl)-N-[4-(3-cyanophenyl)-5-(4-methylquinazolin-6-yl)thiazol-2-yl]piperazine-1-carboxamide], the Ki was determined as 1.2 nM in assay [1], 0.21 nM in assay [2] (setting [4]) and 9 nM in assay [3] (setting [4]).

With `Cc1ncnc2ccc(-c3sc(NC(=O)N4CCOC(CN(C)C)C4)nc3-c3cccc(C#N)c3)cc12` (stereo not drawn) [Example 7.8, N-[4-(3-Cyanophenyl)-5-(4-methylquinazolin-6-yl)thiazol-2-yl]-2-[(dimethylamino)methyl]morpholine-4-carboxamide], the values for the Ki in assay [1], in assay [2] (setting [4]) and in assay [3] (setting [4]) were 2.4 nM, 0.14 nM and 13 nM, respectively.

With `Cc1ncnc2ccc(-c3sc(NC(=O)N4CCC(OCCN5CCCC5)C4)nc3-c3cccc(C#N)c3)cc12` (stereo not drawn) [Example 7.9, N-[4-(3-Cyanophenyl)-5-(4-methylquinazolin-6-yl)thiazol-2-yl]-3-(2-pyrrolidin-1-ylethoxy)pyrrolidine-1-carboxamide], the Ki in assay [1] amounted to 1.9 nM; in assay [2] (setting [4]) it was 0.1 nM; in assay [3] (setting [4]) it was 21 nM.

As for `Cc1ncnc2ccc(-c3sc(NC(=O)N4CCC5(CC4)CN(C)CCO5)nc3-c3cccc(C#N)c3)cc12` [Example 7.10, N-[4-(3-Cyanophenyl)-5-(4-methylquinazolin-6-yl)thiazol-2-yl]-4-methyl-1-oxa-4,9-diazaspiro[5.5]undecane-9-carboxamide], the figures for the Ki in assay [1], in assay [2] (setting [4]) and in assay [3] (setting [4]) were 2.8 nM, 0.42 nM and 12 nM, respectively.

Take `Cc1ncnc2ccc(-c3sc(NC(=O)N4CC5CCCN(C)C5C4)nc3-c3cccc(C#N)c3)cc12` (stereo not drawn) [Example 7.11, N-[4-(3-Cyanophenyl)-5-(4-methylquinazolin-6-yl)thiazol-2-yl]-1-methyl-3,4,4a,5,7,7a-hexahydro-2H-pyrrolo[3,4-b]pyridine-6-carboxamide]: the Ki in assay [1] turned out to be 5.4 nM; in assay [2] (setting [4]) it was 0.54 nM; in assay [3] (setting [4]), 98 nM.

As to `Cc1ncnc2ccc(-c3sc(NC(=O)N4CCC(N5CCN(C)CC5)CC4)nc3-c3cccc(C#N)c3)cc12` [Example 7.12, N-[4-(3-Cyanophenyl)-5-(4-methylquinazolin-6-yl)thiazol-2-yl]-4-(4-methylpiperazin-1-yl)piperidine-1-carboxamide], the Ki in assay [1] amounted to 6.5 nM; in assay [2] (setting [4]), 2.05 nM; in assay [3] (setting [4]), 221 nM.

As for `Cc1ncnc2ccc(-c3sc(NC(=O)N4CCN(C5CCN(C)CC5)CC4)nc3-c3cccc(C#N)c3)cc12` [Example 7.13, N-[4-(3-Cyanophenyl)-5-(4-methylquinazolin-6-yl)thiazol-2-yl]-4-(1-methyl-4-piperidyl)piperazine-1-carboxamide], the Ki was 4.8 nM in assay [1], 1.01 nM in assay [2] (setting [4]) and 125 nM in assay [3] (setting [4]).

As for `Cc1ncnc2ccc(-c3sc(NC(=O)N4CCC(N5CCOCC5)CC4)nc3-c3cccc(C#N)c3)cc12` [Example 7.14, N-[4-(3-Cyanophenyl)-5-(4-methylquinazolin-6-yl)thiazol-2-yl]-4-morpholino-piperidine-1-carboxamide], the Ki in assay [1] stood at 5.4 nM; in assay [2] (setting [4]), 2.61 nM; in assay [3] (setting [4]), 150 nM.

On to `Cc1ncnc2ccc(-c3sc(NC(=O)N4CCN(CC#N)CC4)nc3-c3cccc(C#N)c3)cc12` [Example 7.15, 4-(Cyanomethyl)-N-[4-(3-cyanophenyl)-5-(4-methylquinazolin-6-yl)thiazol-2-yl]piperazine-1-carboxamide], for which the inhibitory constant (Ki) in assay [1] is 1.1 nM; in assay [2] (setting [4]), 0.18 nM; in assay [3] (setting [4]), 14 nM.

Consider `Cc1ncnc2ccc(-c3sc(NC(=O)N4CCN[C@H](C(C)(C)O)C4)nc3-c3cccc(C#N)c3)cc12` [Example 7.16, (3S)-N-[4-(3-Cyanophenyl)-5-(4-methylquinazolin-6-yl)thiazol-2-yl]-3-(1-hydroxy-1-methyl-ethyl)piperazine-1-carboxamide], for which the figures for the Ki in assay [1], in assay [2] (setting [4]) and in assay [3] (setting [4]) were 2.6 nM, 0.18 nM and 17 nM, respectively.

Consider `Cc1ncnc2ccc(-c3sc(NC(=O)N4CCCNCC4)nc3-c3cccc(C#N)c3)cc12` [Example 7.18, N-[4-(3-Cyanophenyl)-5-(4-methylquinazolin-6-yl)thiazol-2-yl]-1,4-diazepane-1-carboxamide], for which the Ki turned out to be 2.2 nM in assay [1], 0.38 nM in assay [2] (setting [4]) and 11 nM in assay [3] (setting [4]).

In the case of `Cc1ncnc2ccc(-c3sc(NC(=O)N4CC5(CCO5)C4)nc3-c3cccc(C#N)c3)cc12` [Example 7.19, N-[4-(3-Cyanophenyl)-5-(4-methylquinazolin-6-yl)thiazol-2-yl]-1-oxa-6-azaspiro[3.3]heptane-6-carboxamide], the Ki is 0.9 nM in assay [1], 0.08 nM in assay [2] (setting [4]) and 13 nM in assay [3] (setting [4]).
